Source: paper PMC5218480 (PLoS ONE, 2017)

Test system: MV-4-11 cells
Test: Gene expression microarray analysis (Affymetrix PrimeView) and GSEA
Type: cell-based, human
Parameters: RFU PODN (11730768_x_at) / Fold change /veh PODN (11730768_x_at) / RFU LINC00158 (11744669_a_at) / Fold change /veh LINC00158 (11744669_a_at) / RFU DUSP10 (11751237_a_at) / Fold change /veh DUSP10 (11751237_a_at) / RFU ID3 (11757404_x_at) / Fold change /veh ID3 (11757404_x_at) / RFU PLEKHG5 (11737974_s_at) / Fold change /veh PLEKHG5 (11737974_s_at) / RFU LRRC4B (11730491_at) / Fold change /veh LRRC4B (11730491_at) / RFU GIMAP4 (11747438_a_at) / Fold change /veh GIMAP4 (11747438_a_at) / RFU KRT8 (11758183_x_at) / Fold change /veh KRT8 (11758183_x_at) / RFU CNN1 (11734310_a_at) / Fold change /veh CNN1 (11734310_a_at) / RFU VPS37D (11726825_at) / Fold change /veh VPS37D (11726825_at) / RFU C10orf10 (11716522_x_at) / Fold change /veh C10orf10 (11716522_x_at) / RFU KIR2DL2 /// KIR2DL4 /// KIR2DL5A /// KIR2DL5B /// KIR2DS1 /// KIR2DS2 /// KIR2DS3 /// KIR2DS4 /// KIR3DL3 /// KIR3DL3 /// KIR3DS1 (11738374_at) / Fold change /veh KIR2DL2 /// KIR2DL4 /// KIR2DL5A /// KIR2DL5B /// KIR2DS1 /// KIR2DS2 /// KIR2DS3 /// KIR2DS4 /// KIR3DL3 /// KIR3DL3 /// KIR3DS1 (11738374_at) / RFU C1QL1 (11718748_at) / Fold change /veh C1QL1 (11718748_at) / RFU TMPRSS4 (11747572_a_at) / Fold change /veh TMPRSS4 (11747572_a_at) / RFU HAMP (11756126_x_at) / Fold change /veh HAMP (11756126_x_at) / RFU RNFT2 (11725882_a_at) / Fold change /veh RNFT2 (11725882_a_at) / RFU NR4A2 (11747474_a_at) / Fold change /veh NR4A2 (11747474_a_at) / RFU ABCC12 (11746883_a_at) / Fold change /veh ABCC12 (11746883_a_at) / RFU TMEM136 (11760407_x_at) / Fold change /veh TMEM136 (11760407_x_at) / RFU CLDN22 /// WWC2 (11732394_at) / Fold change /veh CLDN22 /// WWC2 (11732394_at) / RFU HLA-DPB1 (11760878_x_at) / Fold change /veh HLA-DPB1 (11760878_x_at) / RFU SPINT1 (11716480_a_at) / Fold change /veh SPINT1 (11716480_a_at) / RFU GAP43 (11754022_s_at) / Fold change /veh GAP43 (11754022_s_at) / RFU A4GNT (11735810_at) / Fold change /veh A4GNT (11735810_at) / RFU PRB3 (11715151_x_at) / Fold change /veh PRB3 (11715151_x_at) / RFU TUBB4B (11761932_at) / Fold change /veh TUBB4B (11761932_at) / RFU CAPN14 (11732068_a_at) / Fold change /veh CAPN14 (11732068_a_at) / RFU TMCC2 (11721928_a_at) / Fold change /veh TMCC2 (11721928_a_at) / RFU IRGQ (11745062_a_at) / Fold change /veh IRGQ (11745062_a_at) / RFU FAM174B (11720279_a_at) / Fold change /veh FAM174B (11720279_a_at) / RFU TMPRSS4 (11748680_a_at) / Fold change /veh TMPRSS4 (11748680_a_at) / RFU FAM212B (11763350_a_at) / Fold change /veh FAM212B (11763350_a_at) / RFU PLEKHG5 (11743358_a_at) / Fold change /veh PLEKHG5 (11743358_a_at) / RFU ZSCAN30 (11745921_a_at) / Fold change /veh ZSCAN30 (11745921_a_at) / RFU CMKLR1 (11741424_a_at) / Fold change /veh CMKLR1 (11741424_a_at) / RFU LOC101060620 /// MAPK8IP1 (11723275_at) / Fold change /veh LOC101060620 /// MAPK8IP1 (11723275_at) / RFU SPTSSB (11747773_x_at) / Fold change /veh SPTSSB (11747773_x_at) / RFU PRSS12 (11739890_at) / Fold change /veh PRSS12 (11739890_at) / RFU BIN1 (11741810_x_at) / Fold change /veh BIN1 (11741810_x_at) / RFU WNT11 (11732464_a_at) / Fold change /veh WNT11 (11732464_a_at) / RFU C10orf10 (11716521_a_at) / Fold change /veh C10orf10 (11716521_a_at) / RFU C5orf56 (11738089_at) / Fold change /veh C5orf56 (11738089_at) / RFU CYB561 (11721691_x_at) / Fold change /veh CYB561 (11721691_x_at) / RFU ANKRD19P (11752326_a_at) / Fold change /veh ANKRD19P (11752326_a_at) / RFU OR2T12 /// OR2T33 /// OR2T8 (11738714_s_at) / Fold change /veh OR2T12 /// OR2T33 /// OR2T8 (11738714_s_at) / RFU VCAN (11748164_a_at) / Fold change /veh VCAN (11748164_a_at) / RFU JSRP1 (11732532_at) / Fold change /veh JSRP1 (11732532_at) / RFU KRTAP10-11 (11738290_x_at) / Fold change /veh KRTAP10-11 (11738290_x_at) / RFU MYO3A (11730013_a_at) / Fold change /veh MYO3A (11730013_a_at) / RFU EBF3 (11725865_a_at) / Fold change /veh EBF3 (11725865_a_at) / RFU CAMK2N1 (11719241_x_at) / Fold change /veh CAMK2N1 (11719241_x_at) / RFU C5orf56 (11738088_a_at) / Fold change /veh C5orf56 (11738088_a_at) / RFU OLFML3 (11715873_a_at) / Fold change /veh OLFML3 (11715873_a_at) / RFU LOC100653217 /// NTM (11731650_a_at) / Fold change /veh LOC100653217 /// NTM (11731650_a_at) / RFU MAPK11 (11762145_a_at) / Fold change /veh MAPK11 (11762145_a_at) / RFU FIZ1 (11724087_x_at) / Fold change /veh FIZ1 (11724087_x_at) / RFU OASL (11726364_x_at) / Fold change /veh OASL (11726364_x_at) / RFU SOX15 (11748057_x_at) / Fold change /veh SOX15 (11748057_x_at) / RFU CD79A (11719716_a_at) / Fold change /veh CD79A (11719716_a_at) / RFU HIST1H1D (11736915_at) / Fold change /veh HIST1H1D (11736915_at) / RFU CASKIN2 (11723855_a_at) / Fold change /veh CASKIN2 (11723855_a_at) / RFU LOC730098 (11760151_x_at) / Fold change /veh LOC730098 (11760151_x_at) / RFU OR4N2 (11742367_at) / Fold change /veh OR4N2 (11742367_at) / RFU PRRT2 (11749266_a_at) / Fold change /veh PRRT2 (11749266_a_at) / RFU SNX32 (11753110_a_at) / Fold change /veh SNX32 (11753110_a_at) / RFU CDHR5 (11726645_a_at) / Fold change /veh CDHR5 (11726645_a_at) / RFU RCAN1 (11760418_a_at) / Fold change /veh RCAN1 (11760418_a_at) / RFU FAM167A (11723789_a_at) / Fold change /veh FAM167A (11723789_a_at) / RFU FAM26E (11764081_at) / Fold change /veh FAM26E (11764081_at) / RFU ISYNA1 (11749810_s_at) / Fold change /veh ISYNA1 (11749810_s_at) / RFU ACY1 (11761880_at) / Fold change /veh ACY1 (11761880_at) / RFU 11764098_at / Fold change /veh 11764098_at / RFU SAMD14 (11745864_x_at) / Fold change /veh SAMD14 (11745864_x_at) / RFU NPB (11741838_a_at) / Fold change /veh NPB (11741838_a_at) / RFU TMPRSS6 (11731388_a_at) / Fold change /veh TMPRSS6 (11731388_a_at) / RFU KRTAP10-2 (11738614_at) / Fold change /veh KRTAP10-2 (11738614_at) / RFU ARHGAP8 /// PRR5-ARHGAP8 (11727945_x_at) / Fold change /veh ARHGAP8 /// PRR5-ARHGAP8 (11727945_x_at) / RFU KRTAP5-7 /// NADSYN1 (11734609_at) / Fold change /veh KRTAP5-7 /// NADSYN1 (11734609_at) / RFU RASL12 (11751679_a_at) / Fold change /veh RASL12 (11751679_a_at) / RFU CDKN2B (11736163_a_at) / Fold change /veh CDKN2B (11736163_a_at) / RFU PRF1 (11729649_at) / Fold change /veh PRF1 (11729649_at) / RFU, ZNF638 /// ZNF638-IT1 / Fold change vs veh, ZNF638 /// ZNF638-IT1 / RFU, PANK3 / Fold change vs veh, PANK3 / RFU, SH3YL1 / Fold change vs veh, SH3YL1 / RFU, ZEB2 / Fold change vs veh, ZEB2 / RFU, NRIP1 / Fold change vs veh, NRIP1 / RFU, PTTG1IP / Fold change vs veh, PTTG1IP / RFU, CAPN2 / Fold change vs veh, CAPN2 / RFU, MED14 / Fold change vs veh, MED14 / RFU, SNORA58 / Fold change vs veh, SNORA58 / RFU, C1orf63 / Fold change vs veh, C1orf63 / RFU, LRRFIP1 / Fold change vs veh, LRRFIP1 / RFU, NDUFAF7 / Fold change vs veh, NDUFAF7 / RFU, SLC12A2 / Fold change vs veh, SLC12A2 / RFU, IBTK / Fold change vs veh, IBTK / RFU, ESF1 / Fold change vs veh, ESF1 / Fold change vs veh, TMEM50B / RFU, TAOK1 / Fold change vs veh, TAOK1 / RFU, ACBD3 / Fold change vs veh, ACBD3 / RFU, TMA16 / Fold change vs veh, TMA16 / RFU, RWDD3 / Fold change vs veh, RWDD3 / RFU, BCAT1 / Fold change vs veh, BCAT1 / RFU, EDEM3 / Fold change vs veh, EDEM3 / RFU, TMEM33 / Fold change vs veh, TMEM33 / RFU, WDR75 / Fold change vs veh, WDR75 / RFU, AHCTF1 / Fold change vs veh, AHCTF1 / RFU, TFRC / Fold change vs veh, TFRC / RFU, ZDHHC17 / Fold change vs veh, ZDHHC17 / RFU, NOM1 / Fold change vs veh, NOM1 / RFU, ARL8B / Fold change vs veh, ARL8B / RFU, ZBTB11 / Fold change vs veh, ZBTB11 / RFU, TAMM41 / Fold change vs veh, TAMM41 / RFU, KIAA1704 /// LOC100996395 / Fold change vs veh, KIAA1704 /// LOC100996395 / RFU, ING1 / Fold change vs veh, ING1 / RFU, TRMT61B / Fold change vs veh, TRMT61B / RFU, FUBP3 / Fold change vs veh, FUBP3 / RFU, TP53 / Fold change vs veh, TP53 / RFU, TNKS2 / Fold change vs veh, TNKS2 / RFU, ZFP14 / Fold change vs veh, ZFP14 / RFU, ACTR2 / Fold change vs veh, ACTR2 / RFU, PPP3R1 / Fold change vs veh, PPP3R1 / RFU, PIK3R1 / Fold change vs veh, PIK3R1 / RFU, HNRNPA1 / Fold change vs veh, HNRNPA1 / RFU, RNF170 / Fold change vs veh, RNF170 / RFU, ZNF28 / Fold change vs veh, ZNF28 / RFU, RNGTT / Fold change vs veh, RNGTT / RFU, OGT / Fold change vs veh, OGT / RFU, BRD1 / Fold change vs veh, BRD1 / RFU, MARS / Fold change vs veh, MARS / RFU, ZNF655 / Fold change vs veh, ZNF655 / RFU, FAHD1 / Fold change vs veh, FAHD1 / RFU, BDP1 / Fold change vs veh, BDP1 / RFU, LRRCC1 / Fold change vs veh, LRRCC1 / RFU, ARID1A / Fold change vs veh, ARID1A / RFU, ZNF146 / Fold change vs veh, ZNF146 / RFU, ZNF330 / Fold change vs veh, ZNF330 / RFU, GPN3 / Fold change vs veh, GPN3 / RFU, C9orf123 / Fold change vs veh, C9orf123 / RFU, N4BP2L2 / Fold change vs veh, N4BP2L2 / RFU, ARFIP1 / Fold change vs veh, ARFIP1 / RFU, FAM179B / Fold change vs veh, FAM179B / RFU, BCL10 / Fold change vs veh, BCL10 / RFU, UHRF1BP1L / Fold change vs veh, UHRF1BP1L / RFU, BET1 / Fold change vs veh, BET1 / RFU, CNOT2 / Fold change vs veh, CNOT2 / RFU, ZNF268 / Fold change vs veh, ZNF268 / Fold change vs veh, ZNF507 / RFU, DGCR2 / Fold change vs veh, DGCR2 / RFU, WDSUB1 / Fold change vs veh, WDSUB1 / Fold change vs veh, HSP90B1 /// MIR3652 / RFU, ADSS / Fold change vs veh, ADSS / RFU, GK / Fold change vs veh, GK / RFU, ZNF148 / Fold change vs veh, ZNF148 / RFU, TAF9 / Fold change vs veh, TAF9 / RFU, SLC1A5 / Fold change vs veh, SLC1A5 / RFU, SLMO2 / Fold change vs veh, SLMO2 / RFU, ABCC4 / Fold change vs veh, ABCC4 / RFU, LOC101060439 /// RAP1B / Fold change vs veh, LOC101060439 /// RAP1B / RFU, RFX7 / Fold change vs veh, RFX7 / RFU, GTPBP10 / Fold change vs veh, GTPBP10 / RFU, CNEP1R1 / Fold change vs veh, CNEP1R1 / RFU, BIVM-ERCC5 /// ERCC5 / Fold change vs veh, BIVM-ERCC5 /// ERCC5 / RFU, ILF3 / Fold change vs veh, ILF3 / RFU 11762660_at / Fold change /veh 11762660_at / RFU VCAN (11757783_s_at) / Fold change /veh VCAN (11757783_s_at) / RFU DDX43 (11728927_at) / Fold change /veh DDX43 (11728927_at) / RFU KRT8 (11758188_x_at) / Fold change /veh KRT8 (11758188_x_at) / RFU NKD1 (11759106_at) / Fold change /veh NKD1 (11759106_at) / RFU SRD5A1 (11742802_a_at) / Fold change /veh SRD5A1 (11742802_a_at) / RFU TPSAB1 /// TPSB2 (11721975_s_at) / Fold change /veh TPSAB1 /// TPSB2 (11721975_s_at) / RFU GSTM3 (11746129_a_at) / Fold change /veh GSTM3 (11746129_a_at) / RFU IL23R (11737362_x_at) / Fold change /veh IL23R (11737362_x_at) / RFU TMEM51 (11727254_a_at) / Fold change /veh TMEM51 (11727254_a_at) / RFU PIWIL2 (11732686_x_at) / Fold change /veh PIWIL2 (11732686_x_at) / RFU ORM1 (11744905_x_at) / Fold change /veh ORM1 (11744905_x_at) / RFU CCDC152 (11743942_at) / Fold change /veh CCDC152 (11743942_at) / RFU ECM1 (11717891_a_at) / Fold change /veh ECM1 (11717891_a_at) / RFU IL23R (11748794_a_at) / Fold change /veh IL23R (11748794_a_at) / RFU TNFAIP8L3 (11732012_x_at) / Fold change /veh TNFAIP8L3 (11732012_x_at) / RFU MBOAT4 (11741988_at) / Fold change /veh MBOAT4 (11741988_at) / RFU 11764193_at / Fold change /veh 11764193_at / RFU TMEM53 (11763286_at) / Fold change /veh TMEM53 (11763286_at) / RFU MAGEB2 (11727129_at) / Fold change /veh MAGEB2 (11727129_at) / RFU TMEM200A (11744735_a_at) / Fold change /veh TMEM200A (11744735_a_at) / RFU CCDC152 (11751479_a_at) / Fold change /veh CCDC152 (11751479_a_at) / RFU FAM211A (11726209_a_at) / Fold change /veh FAM211A (11726209_a_at) / RFU RGS16 (11746705_a_at) / Fold change /veh RGS16 (11746705_a_at) / RFU VCAN (11755009_s_at) / Fold change /veh VCAN (11755009_s_at) / RFU RHOB (11743442_s_at) / Fold change /veh RHOB (11743442_s_at) / RFU RGS16 (11720943_a_at) / Fold change /veh RGS16 (11720943_a_at) / RFU RGS16 (11720944_at) / Fold change /veh RGS16 (11720944_at) / RFU, VPS4B / Fold change vs veh, VPS4B / RFU, CREB1 / Fold change vs veh, CREB1 / RFU, DNAJC13 / Fold change vs veh, DNAJC13 / RFU, GNAQ / Fold change vs veh, GNAQ / RFU, CDK5R1 / Fold change vs veh, CDK5R1 / RFU, ZRANB3 / Fold change vs veh, ZRANB3 / RFU, CUL4A / Fold change vs veh, CUL4A / RFU, CCNY / Fold change vs veh, CCNY / RFU, UFL1 / Fold change vs veh, UFL1 / RFU, COG3 / Fold change vs veh, COG3 / RFU, DIAPH2 / Fold change vs veh, DIAPH2 / RFU, SKA2 / Fold change vs veh, SKA2 / RFU, AFF3 / Fold change vs veh, AFF3 / RFU, LMF1 / Fold change vs veh, LMF1 / RFU, IPO11 / Fold change vs veh, IPO11 / RFU, DFFB / Fold change vs veh, DFFB / RFU, FOXP1 / Fold change vs veh, FOXP1 / RFU, CARD8 / Fold change vs veh, CARD8 / RFU, STRN3 / Fold change vs veh, STRN3 / RFU, ADK / Fold change vs veh, ADK / RFU, RASSF2 / Fold change vs veh, RASSF2 / RFU, WIPF1 / Fold change vs veh, WIPF1 / RFU, LARP1B / Fold change vs veh, LARP1B / RFU, RASA1 / Fold change vs veh, RASA1 / RFU, RB1 / Fold change vs veh, RB1 / RFU, PPFIA1 / Fold change vs veh, PPFIA1 / RFU, MAT2A / Fold change vs veh, MAT2A / RFU, CCT5 / Fold change vs veh, CCT5 / RFU, WDR92 / Fold change vs veh, WDR92 / RFU, CUX1 / Fold change vs veh, CUX1 / RFU, TTC7A / Fold change vs veh, TTC7A / RFU, TMEM135 / Fold change vs veh, TMEM135 / RFU, DEPTOR / Fold change vs veh, DEPTOR / RFU, CPM / Fold change vs veh, CPM / RFU, DNAJB6 / Fold change vs veh, DNAJB6 / RFU, CACNA2D3 / Fold change vs veh, CACNA2D3 / RFU, DTX4 / Fold change vs veh, DTX4 / RFU, TFCP2 / Fold change vs veh, TFCP2 / RFU, GMCL1 /// GMCL1P1 / Fold change vs veh, GMCL1 /// GMCL1P1 / RFU, AEBP2 / Fold change vs veh, AEBP2 / RFU, SNHG1 /// SNORD22 /// SNORD25 /// SNORD26 /// SNORD27 /// SNORD28 /// SNORD29 /// SNORD31 / Fold change vs veh, SNHG1 /// SNORD22 /// SNORD25 /// SNORD26 /// SNORD27 /// SNORD28 /// SNORD29 /// SNORD31 / Fold change (Aza/veh), C12orf56 (ProbeSet 11735607_a_at) / Fold change (ACY-1035/veh), C12orf56 (ProbeSet 11735607_a_at) / Fold change (Aza/veh), FGFR1OP (ProbeSet 11751329_s_at) / Fold change (ACY-1035/veh), FGFR1OP (ProbeSet 11751329_s_at) / Fold change (Aza/veh), VPS36 (ProbeSet 11739960_a_at) / Fold change (ACY-1035/veh), VPS36 (ProbeSet 11739960_a_at) / RFU SYPL1 (11715823_x_at) / Fold change /veh SYPL1 (11715823_x_at) / RFU IGFBP7 (11715501_s_at) / Fold change /veh IGFBP7 (11715501_s_at) / RFU REEP3 (11722064_at) / Fold change /veh REEP3 (11722064_at) / RFU IGLL1 (11728026_x_at) / Fold change /veh IGLL1 (11728026_x_at): dose or concentration left out as unconfirmed
Conditions: ProbeSet 11733831_s_at; LIST D

Structure (SMILES): Nc1ccc(-c2cccs2)cc1NC(=O)c1ccc2c(c1)cc(C1CC1)n2CCN1CCOCC1 [ACY-1035]
- Fold change vs veh, GMCL1 /// GMCL1P1: 0.86
